# Reference: paper PMC6328375 (Molecular pharmaceutics, 2017)
# “And” between values parts separate entries of the source, which are not always exact repeats. Identical values can stand only once. Counter-ions that a name gives are not always drawn.
# How the values were obtained:
# [1] = molecular target: T1, OCT1 (Homo sapiens, UniProt O15245); test: Inhibition of [14C]-metformin uptake in HEK293 cells expressing OCT1; type: cell-based
# T1 sequence (O15245 1-554): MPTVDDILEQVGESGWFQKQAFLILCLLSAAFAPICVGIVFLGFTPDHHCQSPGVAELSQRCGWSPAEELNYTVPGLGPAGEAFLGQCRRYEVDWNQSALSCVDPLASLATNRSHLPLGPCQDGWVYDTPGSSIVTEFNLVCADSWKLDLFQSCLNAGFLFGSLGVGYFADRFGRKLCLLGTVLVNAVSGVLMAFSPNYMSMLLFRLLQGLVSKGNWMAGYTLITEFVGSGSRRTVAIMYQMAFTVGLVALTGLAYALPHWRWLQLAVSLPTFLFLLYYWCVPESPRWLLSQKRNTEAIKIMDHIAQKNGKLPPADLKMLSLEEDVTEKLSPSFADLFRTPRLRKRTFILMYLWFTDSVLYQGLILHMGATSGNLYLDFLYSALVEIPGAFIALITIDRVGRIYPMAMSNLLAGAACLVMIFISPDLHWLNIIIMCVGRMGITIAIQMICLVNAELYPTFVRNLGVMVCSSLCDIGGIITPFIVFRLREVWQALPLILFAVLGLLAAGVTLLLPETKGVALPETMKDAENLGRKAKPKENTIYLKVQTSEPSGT
# [2] = molecular target: T2, OCT3 (Homo sapiens, UniProt O75751); test: Uptake in HEK293 cells stably overexpressing OCT3; type: in vitro ADME; conditions: 100 μM
# T2 sequence (O75751 1-556): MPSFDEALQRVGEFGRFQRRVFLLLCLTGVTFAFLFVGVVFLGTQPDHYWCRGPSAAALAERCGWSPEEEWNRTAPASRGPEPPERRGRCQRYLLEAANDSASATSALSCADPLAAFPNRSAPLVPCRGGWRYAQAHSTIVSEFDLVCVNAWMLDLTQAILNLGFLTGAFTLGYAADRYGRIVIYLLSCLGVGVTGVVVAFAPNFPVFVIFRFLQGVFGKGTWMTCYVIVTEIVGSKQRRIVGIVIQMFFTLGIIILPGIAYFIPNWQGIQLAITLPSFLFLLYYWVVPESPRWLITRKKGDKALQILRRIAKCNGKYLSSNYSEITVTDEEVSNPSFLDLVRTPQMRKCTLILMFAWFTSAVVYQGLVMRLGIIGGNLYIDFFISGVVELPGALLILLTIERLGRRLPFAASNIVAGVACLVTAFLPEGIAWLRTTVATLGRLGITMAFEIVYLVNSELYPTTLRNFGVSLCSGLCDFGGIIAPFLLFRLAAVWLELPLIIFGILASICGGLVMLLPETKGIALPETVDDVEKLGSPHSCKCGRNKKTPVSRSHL
# [3] = molecular target: T3, OCT2 (Homo sapiens, UniProt O15244); test: Uptake in HEK293 cells overexpressing OCT2; type: in vitro ADME; conditions: for P, OCT2 / Vmax, OCT2 / P (non-saturable clearance parameter), OCT2 / Vmax (maximum uptake rate), OCT2 / Km: HEK293-OCT2, 0.1–1000 μM; for Vmax (maximum uptake rate), OCT2: estimate ± standard error (n = 6); for Km: read-out: Km (Michaelis-Menten constant), OCT2; for Time dependent uptake in HEK-OCT2 cells versus empty vector controls (HEK-P5): 5 μM MPP+ or 50 μM metformin, 1–30 min
# T3 sequence (O15244 1-555): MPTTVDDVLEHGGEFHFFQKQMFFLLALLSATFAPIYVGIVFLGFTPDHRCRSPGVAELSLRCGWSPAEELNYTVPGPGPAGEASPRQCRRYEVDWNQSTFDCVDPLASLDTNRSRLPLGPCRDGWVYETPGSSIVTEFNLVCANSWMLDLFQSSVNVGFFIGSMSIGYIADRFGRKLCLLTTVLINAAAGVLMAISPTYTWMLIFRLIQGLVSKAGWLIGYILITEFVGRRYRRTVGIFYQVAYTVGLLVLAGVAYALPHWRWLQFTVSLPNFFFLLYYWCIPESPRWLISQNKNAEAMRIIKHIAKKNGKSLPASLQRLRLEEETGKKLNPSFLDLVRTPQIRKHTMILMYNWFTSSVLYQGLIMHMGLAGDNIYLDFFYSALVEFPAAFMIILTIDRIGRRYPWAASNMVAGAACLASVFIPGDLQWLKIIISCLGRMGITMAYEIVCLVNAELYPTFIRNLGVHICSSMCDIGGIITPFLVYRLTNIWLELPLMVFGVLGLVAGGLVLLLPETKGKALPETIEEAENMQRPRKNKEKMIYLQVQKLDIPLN
# [4] = molecular target: T1, OCT1; test: Uptake in HEK293 cells overexpressing OCT1; type: in vitro ADME; conditions: for P, OCT1 / Vmax, OCT1 / P (non-saturable clearance parameter), OCT1 / Vmax (maximum uptake rate), OCT1 / Km: HEK293-OCT1, 0.1–1000 μM; for Vmax (maximum uptake rate), OCT1: estimate ± standard error (n = 6); for Km: read-out: Km (Michaelis-Menten constant), OCT1; for Time dependent uptake in HEK-OCT1 cells versus empty vector controls (HEK-P5): 5 μM MPP+ or 50 μM metformin, 1–30 min
# [5] = molecular target: T3, OCT2; conditions: 50 μM compound, 5 μM MPP+, biguanide vs parent amine
# [6] = molecular target: T1, OCT1; test: Inhibition of [3H]-MPP+ uptake in HEK293 cells expressing OCT1; type: cell-based; conditions: 50 μM compound, 5 μM MPP+, biguanide vs parent amine
# [7] = molecular target: T3, OCT2; test: Inhibition of [14C]-metformin uptake in HEK293 cells expressing OCT2; type: cell-based; conditions: for inhibition at 50 μM: human, HEK293 cells expressing OCT2
# [8] = cited from earlier work
# [9] = 50 μM compound, 50 μM metformin
structure (smiles),measurement,setting,value
"N=C(N)NC(=N)NCCCc1ccccc1 [2c, 1-(3-Phenylpropyl)-biguanide HCl]",inhibition at 50 μM,"[1]; human, HEK293 cells expressing OCT1",≥ 50%
"N=C(N)NC(=N)NCC(c1ccccc1)c1ccccc1 [2f, 2,2-Diphenylethyl-biguanide]",OCT3 substrate,[2],either none or very weak substrates
same,"P, OCT2",[3],0.6 fl/min/mg protein
same,"Vmax, OCT2",[3],1.8 pmol/min/mg protein
same,"P (non-saturable clearance parameter), OCT2",[3]; 10 min,6e-10 ± 3e-10 µL/min/mg
same,"Vmax (maximum uptake rate), OCT2",[3]; 10 min,1.8 ± 0.2 pmol/mg/min
same,Km,[3]; 10 min,12.4 µM and 12 µM
same,"P, OCT1",[4],1.7 fl/min/mg protein
same,"Vmax, OCT1",[4],2.0 pmol/min/mg protein
same,"P (non-saturable clearance parameter), OCT1",[4]; 10 min,1.7e-09 ± 2e-10 µL/min/mg
same,"Vmax (maximum uptake rate), OCT1",[4]; 10 min,2.0 ± 0.1 pmol/mg/min
same,Km,[4]; 10 min,14.2 µM and 14 µM
"N=C(N)NC(=N)NCCc1ccc(-c2ccccc2)cc1 [2g, 2-(4-Biphenyl)ethyl-biguanide]",Change of inhibition of OCT2-mediated uptake of MPP+ upon addition of the biguanide moiety,[5],less inhibition
"N=C(N)NC(=N)NCCOc1ccccc1 [2h, 1-(2-Phenoxyethyl)-biguanide]",Change of inhibition of OCT1-mediated uptake of MPP+ upon addition of the biguanide moiety,[6],increased inhibition
same,inhibition at 50 μM,[7],≥ 50%
"Cl.N=C(N)NC(=N)NC1Cc2ccccc2C1 [2j, 2,3-Dihydro-1H-inden-2-yl-biguanide HCl]",OCT3 substrate,[2],either none or very weak substrates
same,Uptake fold ratio in OCT3 cells,[2]; single concentration,significant increase
same,"P, OCT2",[3],0.1 fl/min/mg protein
same,"Vmax, OCT2",[3],1.1 pmol/min/mg protein
same,"P (non-saturable clearance parameter), OCT2",[3]; 10 min,1e-10 ± 5e-11 µL/min/mg
same,"Vmax (maximum uptake rate), OCT2",[3]; 10 min,1.1 ± 0.04 pmol/mg/min
same,Km,[3]; 10 min,31.7 µM and 32 µM
same,Inhibition of metformin transport in HEK-OCT2 cells,[7]; [9],≥ 50%
same,Inhibition of metformin transport in HEK-OCT1 cells,[1]; [9],≥ 50%
same,"P, OCT1",[4],0.6 fl/min/mg protein
same,"Vmax, OCT1",[4],0.3 pmol/min/mg protein
same,"P (non-saturable clearance parameter), OCT1",[4]; 10 min,6e-10 ± 8e-11 µL/min/mg
same,"Vmax (maximum uptake rate), OCT1",[4]; 10 min,0.3 ± 0.05 pmol/mg/min
same,Km,[4]; 10 min,16.9 µM and 17 µM
"N=C(NN)Nc1ccc(C(=O)O)cc1 [2m, p-(3-Aminoguanidino)-benzoic Acid]",Inhibition of OCT2 mediated metformin uptake,[7]; [9],only inhibited OCT1
same,Inhibition of OCT1 mediated metformin uptake,[1]; [9],inhibited
"C[n+]1ccc(-c2ccccc2)cc1 [MPP^+, 1-methyl-4-phenylpyridinium, reference compound]",Time dependent uptake in HEK-OCT2 cells versus empty vector controls (HEK-P5),[3],higher
same,Time dependent uptake in HEK-OCT1 cells versus empty vector controls (HEK-P5),[4],higher
"CN(C)C(=N)N=C(N)N [metformin, reference compound]",Time dependent uptake in HEK-OCT2 cells versus empty vector controls (HEK-P5),[3],higher
same,Time dependent uptake in HEK-OCT1 cells versus empty vector controls (HEK-P5),[4],higher
"[H]/N=C(/N)N/C(=N/[H])NCCc1ccccc1 [phenformin, reference compound]",Change of inhibition of OCT1-mediated uptake of MPP+ upon addition of the biguanide moiety,[6],increased inhibition
same,OCT2 substrate (fold uptake increase of 1.5 and greater over HEK-P5),"[3]; 100 μM, 10 min, HEK-OCT2 vs empty vector",substrates
same,inhibition at 50 μM,[7],≥ 50%
same,OCT1 substrate (fold uptake increase of 1.5 and greater over HEK-P5),"[4]; 100 μM, 10 min, HEK-OCT1 vs empty vector",substrates
same,Change of inhibition of OCT2-mediated uptake of MPP+ upon addition of the biguanide moiety,[5],less inhibition
CC(C)[C@H](N)C(=O)OCCOCn1cnc2c(=O)[nH]c(N)nc21 [valacyclovir],Oral bioavailability,[8],50%
